Data taken from publication PMC4973094, “Anti-cholinesterases and memory improving effects of Vietnamese Xylia xylocarpa” (Chemistry Central Journal, 2016).
Where a name gives a salt, the structure may show the parent alone. Read-outs that look alike come from different tables or passages of the source.

Legend:
[1] = target: T1, Acetylcholinesterase (AChE) (EC 3.1.1.7) (Homo sapiens, UniProt P22303); assay: AChE inhibition assay (modified Ellman's method); format: biochemical
T1 construct: purchased Sigma-Aldrich Pte Ltd (Nucleos, Singapore)
T1 sequence (P22303 32-614): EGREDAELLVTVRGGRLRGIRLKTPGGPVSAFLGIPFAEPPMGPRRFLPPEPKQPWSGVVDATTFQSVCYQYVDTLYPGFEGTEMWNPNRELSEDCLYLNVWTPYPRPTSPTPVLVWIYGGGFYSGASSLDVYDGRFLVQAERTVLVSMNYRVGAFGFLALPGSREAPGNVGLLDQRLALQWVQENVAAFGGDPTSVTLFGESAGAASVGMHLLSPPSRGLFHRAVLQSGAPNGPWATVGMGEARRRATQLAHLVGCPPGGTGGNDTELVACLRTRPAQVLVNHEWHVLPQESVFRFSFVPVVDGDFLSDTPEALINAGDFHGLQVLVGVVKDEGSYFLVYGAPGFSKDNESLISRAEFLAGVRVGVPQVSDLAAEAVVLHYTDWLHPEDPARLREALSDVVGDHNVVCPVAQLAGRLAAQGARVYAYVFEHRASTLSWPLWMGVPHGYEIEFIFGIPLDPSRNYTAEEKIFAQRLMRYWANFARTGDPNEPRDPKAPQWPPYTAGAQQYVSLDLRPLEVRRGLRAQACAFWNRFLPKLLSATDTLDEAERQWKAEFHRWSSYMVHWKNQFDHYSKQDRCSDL
Method: (§1) Male Swiss mice (age, 8 weeks; weight, 25–27 g) were purchased from Military Medical University (Hanoi, Vietnam) and housed in a regulated environment (21 ± 2 °C, 12 h light/dark cycle, light period starting at 7 AM) with free access to food and water. Acetylcholinesterase (AChE) (EC 3.1.1.7), butyrylcholinesterase (BChE) (EC 3.1.1.8) and scopolamine hydrobromide (>98 %) were obtained from Sigma-Aldrich Pte Ltd (Nucleos, Singapore). […] Other chemicals were of the highest grade available.
(§2) The inhibitory activities of the ChEs were measured using a modified Ellman’s method. Acetylthiocholine and butyrylthiocholine were used as substrates to examine the inhibitory effect of sample on the AChE and BChE action, respectively. The reaction mixture contained: 140 μL of sodium phosphate buffer (pH 8.0); 20 μL of tested sample solution; and 20 µL of either AChE or BChE solution (5 units/mL), which were mixed and incubated at room temperature for 15 min. The reactions were initiated by the addition of 10 µL of dithiobisnitrobenzoate (DTNB) and 10 μL of either acetylthiocholine or butyrylthiocholine, respectively. The hydrolysis of AChE or BChE was monitored at 412 nm based on the formation of yellow 5-thio-2-nitrobenzoate anion from the reaction of DTNB with thiocholine, which was released by enzymatic hydrolysis of either AChE or BChE. […] The reaction was performed in triplicate and recorded in 96-well microplates using a microplate reader (VersaMax ELISA, USA). Percent inhibition was calculated from (1–S/E) × 100, where E and S were the enzyme activities […] the tested sample, respectively.

[2] = target: T2, butyrylcholinesterase (BChE) (EC 3.1.1.8) (Homo sapiens, UniProt P06276); assay: BChE inhibition assay (modified Ellman's method); format: biochemical; settings: average of 3 replicates ± SD; substrate butyrylthiocholine, pH 8.0
T2 construct: purchased Sigma-Aldrich Pte Ltd (Nucleos, Singapore)
T2 sequence (P06276 29-602, species assumed): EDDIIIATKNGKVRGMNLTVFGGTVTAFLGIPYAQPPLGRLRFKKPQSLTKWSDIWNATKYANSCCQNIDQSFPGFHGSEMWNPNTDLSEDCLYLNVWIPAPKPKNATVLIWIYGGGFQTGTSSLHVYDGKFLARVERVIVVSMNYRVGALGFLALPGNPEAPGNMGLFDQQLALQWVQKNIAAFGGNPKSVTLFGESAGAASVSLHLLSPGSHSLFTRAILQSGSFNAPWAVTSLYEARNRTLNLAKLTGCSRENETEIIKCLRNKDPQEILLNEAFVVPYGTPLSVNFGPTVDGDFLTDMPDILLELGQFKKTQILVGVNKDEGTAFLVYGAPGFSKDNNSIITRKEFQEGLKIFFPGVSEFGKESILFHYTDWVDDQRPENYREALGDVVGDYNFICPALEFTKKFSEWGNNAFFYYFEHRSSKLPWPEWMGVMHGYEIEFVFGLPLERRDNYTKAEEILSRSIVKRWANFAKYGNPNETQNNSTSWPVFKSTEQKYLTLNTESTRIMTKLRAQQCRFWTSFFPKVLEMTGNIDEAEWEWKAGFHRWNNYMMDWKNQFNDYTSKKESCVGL
Method: as §1, §2

[3] = test system: scopolamine-induced memory deficit in mice; assay: Morris water maze test, scopolamine-induced memory dysfunction; format: in vivo, male Swiss mice; settings: scopolamine 1.5 mg/kg i.p. alone, versus vehicle-treated controls
[4] = test system: scopolamine-induced memory deficit in mice; assay: Y-maze test, scopolamine-induced memory impairment; format: in vivo, male Swiss mice; settings: scopolamine 1.5 mg/kg i.p. alone; versus vehicle-treated control group, P < 0.001
[5] = test system: scopolamine-induced memory deficit in mice; assay: Object recognition test, scopolamine-induced recognition impairment; format: in vivo, male Swiss mice; settings: scopolamine 1.5 mg/kg i.p. alone
[6] = days 3 to 7, P < 0.01 and P < 0.001

C=C(C)[C@@H]1CC[C@]2(OO)CC[C@]3(C)C(CCC4[C@@]5(C)CC[C@H](O)C(C)(C)C5CC[C@]43C)C12 (stereo partly drawn) [Compound 5, 28-norlup-20(29)-ene-3β-hydroxy-17β-hydroperoxide]
IC50 [1]: 83.9 ± 0.6 µM
IC50 [2]: > 100 µM

COC(=O)C(Cc1ccc(O)cc1)C(=O)OC [Compound 16, methyl 3-(4-hydroxyphenyl)-2-methoxycarbonylpropionate]
IC50 [1]: > 100 µM
IC50 [2]: > 100 µM

COc1cc(/C=C/C(=O)O)ccc1O [Compound 14, ferulic acid]
IC50 [1]: > 100 µM
IC50 [2]: > 100 µM

C=C(C)[C@@H]1CC[C@]2(C)CC[C@]3(C)[C@H](CC[C@@H]4[C@@]5(C)CC[C@H](O)C(C)(C)[C@@H]5CC[C@]43C)[C@@H]12 [Compound 2, lupeol]
IC50 [1]: 75.7 ± 3.1 µM
IC50 [2]: > 100 µM

C=C(C)[C@@H]1CC[C@]2(C(=O)O)CC[C@]3(C)C(CCC4[C@@]5(C)CCC(=O)C(C)(C)C5CC[C@]43C)C12 (some centres unmarked) [Compound 8, betulonic acid]
IC50 ([1]; read-out: IC50 AChE, average of 3 replicates ± SD, substrate acetylthiocholine, pH 8.0): 94.6 ± 1.5 µM
IC50 [2]: > 100 µM

CC1(C)OC(=O)C23CCC1C2CCC1(C)C3CCC2C3(C)CCC(O)C(C)(C)C3CCC21C (stereo not drawn) [Compound 1, (3β)-hopan-3-ol-28,22-olide]
IC50 [1]: 79.5 ± 1.1 µM
IC50 [2]: > 100 µM

COc1cc(C=O)ccc1O [Compound 19, vanillin]
IC50 [1]: > 100 µM

COC(=O)c1cc(O)c(O)c(O)c1 [Compound 20, methyl gallate]
IC50 [1]: > 100 µM

CN1[C@@H]2C[C@@H](OC(=O)[C@H](CO)c3ccccc3)C[C@H]1[C@@H]1O[C@@H]12 [scopolamine, scopolamine hydrobromide]
Time in the target quadrant, probe trial day 8, Morris water maze ([3]; P < 0.05): significantly reduced
Escape latencies, training trials, Morris water maze [3, 6]: longer
Swimming distances, training trials, Morris water maze [3, 6]: longer
Spontaneous alternation (%) in Y-maze [4]: significantly lower
Time exploring new versus familiar object, test phase, object recognition test [5]: no total time difference between familiar and new objects

CC1(C)CC[C@]23CC[C@]4(C)C(CCC5[C@@]6(C)CC[C@H](OC=O)C(C)(C)C6CC[C@]54C)C2[C@H]1OC3=O (stereo partly drawn) [Compound 11, 3β-formyloxy-l8α-oleanano-28,19β-lactone]
IC50 [1]: 86.5 ± 0.6 µM
IC50 [2]: > 100 µM

COc1cc(C(=O)O)cc(OC)c1O [Compound 21, syringic acid]
IC50 [1]: > 100 µM

COc1cc(C(=O)O)ccc1O [Compound 18, vanillic acid]
IC50 [1]: > 100 µM
IC50 [2]: > 100 µM

COC(=O)/C=C/c1ccc(O)c(OC)c1 [Compound 15, methyl ferulate]
IC50 [1]: > 100 µM

C=C(C)[C@@H]1CC[C@]2(CO)CC[C@]3(C)[C@H](CC[C@@H]4[C@@]5(C)CC[C@H](O)C(C)(C)[C@@H]5CC[C@]43C)[C@@H]12 [Compound 4, betulin]
IC50 [1]: 93.4 ± 2.2 µM

Cc1cc(O)c2c(c1)C(=O)c1cccc(O)c1C2=O [Compound 12, chrysophanol]
IC50 [1]: 77.3 ± 0.8 µM
IC50 [2]: > 100 µM

CC1(C)CC[C@]23CC[C@]4(C)C(CCC5[C@@]6(C)CC[C@H](O)C(C)(C)C6CC[C@]54C)C2[C@H]1OC3=O (stereo partly drawn) [Compound 10, 3β-hydroxy-18α-olean-28,19β-olide]
IC50 [1]: > 100 µM

O=C(O)c1ccc(O)c(O)c1 [Compound 17, protocatechuic acid]
IC50 [1]: > 100 µM

C=C(C)[C@@H]1CC[C@]2(C(=O)O)CC[C@]3(C)[C@H](CC[C@@H]4[C@@]5(C)CC[C@H](O)C(C)(C)[C@@H]5CC[C@]43C)[C@@H]12 [Compound 7, betulinic acid]
IC50 [1]: 62 ± 2.2 µM

C=C(C)[C@@H]1CC[C@]2(O)CC[C@]3(C)C(CCC4[C@@]5(C)CC[C@H](O)C(C)(C)C5CC[C@]43C)C12 (stereo partly drawn) [Compound 3, 28-norlup-20(29)-ene-3β,17β-diol]
IC50 [1]: > 100 µM
IC50 [2]: > 100 µM

COC1=CC(=O)C=C(OC)C1=O [Compound 13, 2,6-dimethoxyl-p-benzoquinone]
IC50 [1]: 54.4 ± 3.4 µM
IC50 [2]: 42.7 ± 7.6 µM
